Test results reported in ChEMBL document CHEMBL3885881, “DrugMatrix”.

Species on record: Rattus norvegicus
Assay: DrugMatrix - Regimen: Daily Repeat
Format: toxicity, organism-based, Sprague-Dawley
Set-up: regimen Daily Repeat, gender Male, age 6-8 weeks
Settings: in vivo, po, route oral GAVAGE, vehicle .5 % CMC; for ABSOLUTE BASOPHIL / ABSOLUTE EOSINOPHIL / ABSOLUTE LYMPHOCYTE / ABSOLUTE MONOCYTE / ABSOLUTE SEGMENTED NEUTROPHIL / BASOPHIL / EOSINOPHIL / ERYTHROCYTE COUNT / HEMATOCRIT / HEMOGLOBIN / LEUKOCYTE COUNT / LYMPHOCYTE / MEAN CORPUSCULAR HEMOGLOBIN / MEAN CORPUSCULAR HEMOGLOBIN CONCENTRATION / MEAN CORPUSCULAR VOLUME / MONOCYTE / NEUTROPHIL / NUCLEATED RED BLOOD CELLS / PLATELET COUNT: tissue Blood; for ALANINE AMINOTRANSFERASE / ALBUMIN / ALKALINE PHOSPHATASE / ASPARTATE AMINOTRANSFERASE / BLOOD UREA NITROGEN / CARBON DIOXIDE / CHLORIDE / CHOLESTEROL / CREATINE PHOSPHOKINASE / CREATININE / GLUCOSE / LACTATE DEHYDROGENASE / LIPASE / PHOSPHORUS / POTASSIUM / SODIUM / TOTAL BILIRUBIN / TOTAL PROTEIN / URIC ACID: tissue Plasma
[1] = 0 mg/kg, 72 h, dose level Control, time 3 day
[2] = 0 mg/kg, 120 h, dose level Control, time 5 day
[3] = 50 mg/kg, 72 h, dose level Low, time 3 day

CN(C)[C@@H]1C(O)=C(C(N)=O)C(=O)[C@@]2(O)C(O)=C3C(=O)c4c(O)ccc(Cl)c4[C@@](C)(O)[C@H]3C[C@@H]12 [CHLORTETRACYCLINE]
ABSOLUTE BASOPHIL [1]: 0 CELLS/uL | ABSOLUTE EOSINOPHIL [1]: 32.5 CELLS/uL | ABSOLUTE LYMPHOCYTE [1]: 13494.17 CELLS/uL | ABSOLUTE MONOCYTE [1]: 474 CELLS/uL | ABSOLUTE SEGMENTED NEUTROPHIL [1]: 1932.67 CELLS/uL | BASOPHIL [1]: 0% | EOSINOPHIL [1]: 0.17% | ERYTHROCYTE COUNT [1]: 5.45 x10E6/uL | HEMATOCRIT [1]: 34.32% | HEMOGLOBIN [1]: 13.82 G/DL | LEUKOCYTE COUNT [1]: 15.93 x10E3/uL | LYMPHOCYTE [1]: 84.83% | MEAN CORPUSCULAR HEMOGLOBIN [1]: 25.38 pg | MEAN CORPUSCULAR HEMOGLOBIN CONCENTRATION [1]: 40.27 G/DL | MEAN CORPUSCULAR VOLUME [1]: 63.05 fL | MONOCYTE [1]: 3% | NEUTROPHIL [1]: 12% | NUCLEATED RED BLOOD CELLS [1]: 0.67 /100WBC | PLATELET COUNT [1]: 1188.5 x10E3/uL | ALANINE AMINOTRANSFERASE [1]: 54.83 u/L | ALBUMIN [1]: 4.22 G/DL | ALKALINE PHOSPHATASE [1]: 427.67 u/L | ASPARTATE AMINOTRANSFERASE [1]: 86.5 u/L | BLOOD UREA NITROGEN [1]: 15.33 mg/dL | CARBON DIOXIDE [1]: 24.83 mmol/L | CHLORIDE [1]: 102.33 MEQ/L | CHOLESTEROL [1]: 71.67 mg/dL | CREATINE PHOSPHOKINASE [1]: 442.5 u/L | CREATININE [1]: 0.19 mg/dL | GLUCOSE [1]: 160.67 mg/dL | LACTATE DEHYDROGENASE [1]: 236.5 u/L | LIPASE [1]: 9 u/L | PHOSPHORUS [1]: 11.97 mg/dL | POTASSIUM [1]: 6.2 MEQ/L | SODIUM [1]: 142.85 MEQ/L | TOTAL BILIRUBIN [1]: 0.2 mg/dL | TOTAL PROTEIN [1]: 5.8 G/DL | URIC ACID [1]: 1.3 mg/dL | ABSOLUTE BASOPHIL [2]: 0 CELLS/uL | ABSOLUTE EOSINOPHIL [2]: 114.5 CELLS/uL | ABSOLUTE LYMPHOCYTE [2]: 14614 CELLS/uL | ABSOLUTE MONOCYTE [2]: 173 CELLS/uL | ABSOLUTE SEGMENTED NEUTROPHIL [2]: 1048.5 CELLS/uL | BASOPHIL [2]: 0% | EOSINOPHIL [2]: 0.67% | ERYTHROCYTE COUNT [2]: 5.66 x10E6/uL | HEMATOCRIT [2]: 35.52% | HEMOGLOBIN [2]: 14.27 G/DL | LEUKOCYTE COUNT [2]: 15.95 x10E3/uL | LYMPHOCYTE [2]: 91.33% | MEAN CORPUSCULAR HEMOGLOBIN [2]: 25.23 pg | MEAN CORPUSCULAR HEMOGLOBIN CONCENTRATION [2]: 40.2 G/DL | MEAN CORPUSCULAR VOLUME [2]: 62.7 fL | MONOCYTE [2]: 1.17% | NEUTROPHIL [2]: 6.83% | NUCLEATED RED BLOOD CELLS [2]: 0.33 /100WBC | PLATELET COUNT [2]: 1229 x10E3/uL | ALANINE AMINOTRANSFERASE [2]: 58.67 u/L | ALBUMIN [2]: 4.32 G/DL | ALKALINE PHOSPHATASE [2]: 382.5 u/L | ASPARTATE AMINOTRANSFERASE [2]: 81.67 u/L | BLOOD UREA NITROGEN [2]: 17.67 mg/dL | CARBON DIOXIDE [2]: 27.17 mmol/L | CHLORIDE [2]: 102.33 MEQ/L | CHOLESTEROL [2]: 63.67 mg/dL | CREATINE PHOSPHOKINASE [2]: 227.67 u/L | CREATININE [2]: 0.23 mg/dL | GLUCOSE [2]: 155.33 mg/dL | LACTATE DEHYDROGENASE [2]: 146.5 u/L | LIPASE [2]: 10.67 u/L | PHOSPHORUS [2]: 11.93 mg/dL | POTASSIUM [2]: 6.85 MEQ/L | SODIUM [2]: 143.95 MEQ/L | TOTAL BILIRUBIN [2]: 0.18 mg/dL | TOTAL PROTEIN [2]: 6.02 G/DL | URIC ACID [2]: 1.63 mg/dL | ABSOLUTE BASOPHIL [3]: 0 CELLS/uL | ABSOLUTE EOSINOPHIL [3]: 126.67 CELLS/uL | ABSOLUTE LYMPHOCYTE [3]: 10511.33 CELLS/uL | ABSOLUTE MONOCYTE [3]: 344.33 CELLS/uL | ABSOLUTE SEGMENTED NEUTROPHIL [3]: 817.67 CELLS/uL | BASOPHIL [3]: 0% | EOSINOPHIL [3]: 1% | ERYTHROCYTE COUNT [3]: 5.49 x10E6/uL | HEMATOCRIT [3]: 34.47% | HEMOGLOBIN [3]: 13.47 G/DL | LEUKOCYTE COUNT [3]: 11.8 x10E3/uL | LYMPHOCYTE [3]: 89% | MEAN CORPUSCULAR HEMOGLOBIN [3]: 24.57 pg | MEAN CORPUSCULAR HEMOGLOBIN CONCENTRATION [3]: 39.13 G/DL | MEAN CORPUSCULAR VOLUME [3]: 62.87 fL | MONOCYTE [3]: 3% | NEUTROPHIL [3]: 7% | NUCLEATED RED BLOOD CELLS [3]: 0 /100WBC | PLATELET COUNT [3]: 1083.33 x10E3/uL | ALANINE AMINOTRANSFERASE [3]: 50.33 u/L | ALBUMIN [3]: 4.07 G/DL | ALKALINE PHOSPHATASE [3]: 403.67 u/L | ASPARTATE AMINOTRANSFERASE [3]: 84.67 u/L | BLOOD UREA NITROGEN [3]: 16.67 mg/dL | CARBON DIOXIDE [3]: 26 mmol/L | CHLORIDE [3]: 103.67 MEQ/L | CHOLESTEROL [3]: 73.33 mg/dL | CREATINE PHOSPHOKINASE [3]: 273.67 u/L | CREATININE [3]: 0.15 mg/dL | GLUCOSE [3]: 157.67 mg/dL | LACTATE DEHYDROGENASE [3]: 157.33 u/L | LIPASE [3]: 9.33 u/L | PHOSPHORUS [3]: 12.13 mg/dL | POTASSIUM [3]: 6.6 MEQ/L | SODIUM [3]: 146.1 MEQ/L | TOTAL BILIRUBIN [3]: 0.2 mg/dL | TOTAL PROTEIN [3]: 5.67 G/DL | URIC ACID [3]: 1.77 mg/dL
